Assay results from ChEMBL document CHEMBL6127148, “Discovery of l-Lysine Dioxalate (LH1513) as a Novel Inhibitor of Calcium Oxalate Crystallization for Hyperoxaluria” (ACS Med Chem Lett, 2024).
The source made the active and inactive calls. The rule behind the calls is not given here.

Tests used:
Calcium oxalate [1] = test: Inhibition of calcium oxalate crystallization in supersaturated solution of CaOx containing of 250 uM of CaCl2 and 250 uM of Na2C2O4 incubated for 72 hrs at pH 6.8 HEPES buffer by fluorescence-based assay
Calcium oxalate [2] = test: Inhibition of calcium oxalate crystallization in supersaturated solution of CaOx containing of 1 mM of CaCl2 and 250 uM of Na2C2O4 incubated for 72 hrs at pH 6.8 HEPES buffer by spectrophotometric method
[3] = Drug excretion in Agxt-knockout C57BL/6 mouse urine at 150 micromol/kg, po measured after 8 hrs; assay type: ADME, organism-based; conditions: in vivo, dose 150 µmol/kg
[4] = Oral bioavailability in Agxt-knockout C57BL/6 mouse assessed as LH1513 level in plasma at 150 micromol/kg administered as triester prodrug and measured after 4 hrs; assay type: ADME, organism-based; conditions: in vivo, at 150 µmol/kg
[5] = Drug metabolism in Agxt-knockout C57BL/6 mouse assessed as LH1513 concentration in urine at 150 micromol/kg, po administered as triester prodrug and measured after 8 hrs; assay type: ADME, organism-based; conditions: in vivo, dose 150 µmol/kg, read-out: Ct
Calcium oxalate [6] = test: Inhibition of calcium oxalate crystallization in COM (100) face assessed as twinned with monoclinic morphology at EC50 concentration by scanning electron microscopic analysis
Mus musculus = test: Anti-hyperoxaluria Agxt-knockout C57BL/6 mouse model of hyperoxaluria assessed as decrease in CaOx crystals in urine at 150 micromol/kg, po administered as triester prodrug for 6 weeks by light microscopic analysis; assay type: functional, organism-based; conditions: dose 150.0 µmol/kg
Calcium oxalate [7] = test: Inhibition of calcium oxalate crystallization in COM (010) face assessed as growth on the (121-) steps at EC50 concentration incubated for 20 min by atomic force microscopic analysis
Calcium oxalate [8] = test: Inhibition of calcium oxalate crystallization in COM (100) face assessed as platy morphology at EC50 concentration by scanning electron microscopic analysis
Calcium oxalate [9] = test: Inhibition of calcium oxalate crystallization in COM (100) face assessed as crystals flattened at the apexes at EC50 concentration by scanning electron microscopic analysis

| EC50 (Calcium oxalate [1]) | EC50 (Calcium oxalate [2]) | SMILES | other results |
| --- | --- | --- | --- |
| 112 µM |  | NCCNC(=O)C(=O)O |  |
| 98.3 µM | 386 µM | CC(=O)C(=O)O [PYRUVATE SODIUM] |  |
| 21.7 µM | 63.8 µM | O=C([O-])C(=O)NCCCC[C@H](NC(=O)C(=O)[O-])C(=O)[O-].[Na+].[Na+].[Na+] | Drug excretion [3]: Active; F [4]: 3%; concentration [5]: ~30 µM; inhibition (Calcium oxalate [6]): Active; Activity (Mus musculus): Active; inhibition (Calcium oxalate [7]): Active |
| 2500 µM | 665 µM | O=C([O-])CC(O)(CC(=O)[O-])C(=O)[O-].[Na+].[Na+].[Na+] [SODIUM CITRATE] | inhibition (Calcium oxalate [8]): Active; inhibition (Calcium oxalate [9]): Active |
| 37.9 µM |  | O=C(O)C(=O)NCCNC(=O)C(=O)O |  |
